According to patent US7037644B1, “Means and methods for monitoring non-nucleoside reverse transcriptase inhibitor antiretroviral therapy and guiding therapeutic decisions in the treatment of HIV/AIDS” (ViroLogic, Inc., priority 1998, dated 2006):

How the values were obtained:
[1] = system: RTV-1057, patient 98-1057 (RT A98G, Y181C); experiment: Phenotypic susceptibility assay (patient RTV); format: cell-based, HIV-1; conditions: patient RTV pool
Protocol: (§1) The resistance test vectors containing a functional luciferase gene cassette were constructed and host cells were transfected with the resistance test vector DNA. The resistant test vectors contained patient-derived reverse transcriptase and protease sequences that were either susceptible or resistant to the antiretroviral agents, such as nucleoside reverse transcriptase inhibitors, non-nucleoside reverse transcriptase inhibitors and protease inhibitors. […] The IC50 values were determined by plotting percent drug inhibition vs. log10 drug concentration.
(§2) Host cells were seeded in 10-cm-diameter dishes and were transfected several days after plating with resistance test vector plasmid DNA and the envelope expression vector. […] HIV capsid protein (p24) levels in the harvested cell culture media were determined by an EIA method as described by the manufacturer (SIAC; Frederick, Md.). […] The inhibitory effect of the drug was determined using the following equation: % luciferase inhibition=1−(RLUluc [drug]÷RLUluc)×100 where RLUluc [drug] is the relative light unit of luciferase activity in infected cells in the presence of drug and RLUluc is the Relative Light Unit of luciferase activity in infected cells in the absence of drug. […]

[2] = system: patient 780 virus (RT K103N, P225H); experiment: Phenotypic susceptibility assay (patient virus); format: cell-based, HIV; conditions: patient 780, FIGS. 8D-8F
Description: FIGS. 8D, 8E, and 8F. Phenotypic Drug Susceptibility and Resistance Profile: Patients 780. This is a second example of the third pattern of NNRTI susceptibility/resistance. […] This pattern is characterized by a larger reduction of nevirapine suseptibility compared to the reduction of delavirdine susceptibility.
The resistance test vectors containing a functional luciferase gene cassette were constructed and host cells were transfected with the resistance test vector DNA. […] The IC50 values were determined by plotting percent drug inhibition vs. log10 drug concentration.
as §2

[3] = system: K103N and Y181C double mutant; experiment: Phenotypic susceptibility assay (site directed mutant RTV); format: cell-based, HIV-1; conditions: FIG. 5
Description: Phenotypic drug susceptibility and resistance profile of site directed reverse transcriptase mutants.
as §1, §2

[4] = system: individual virus clones of patient 302: (K103N, P225H) compared with (K103N, I135M, R211K); experiment: Phenotypic susceptibility assay (patient virus clones); format: cell-based, HIV; conditions: FIG. 8G
Description: as §1, with “inhibitors. The resistance test vector viral particles produced by transfecting the resistance test vector DNA into host cells, either in the presence or absence of protease inhibitors, were used to infect target host cells grown either in the absence of NRTI or NNRTI or in the presence of increasing concentrations of the drug. The amount of luciferase activity produced in infected target host cells in the presence of drug was compared to the amount of luciferase produced in infected target host cells in the absence of drug.” for “inhibitors.”
Host cells were seeded in 10-cm-diameter dishes and were transfected several days after plating with resistance test vector plasmid DNA and the envelope expression vector. […] HIV capsid protein (p24) levels in the harvested cell culture media were determined by an EIA method as described by the manufacturer (SIAC; Frederick, Md.). […]

[5] = system: patient 487 virus (RT M184V, K103N); experiment: Phenotypic susceptibility assay (patient virus); format: cell-based, HIV; conditions: patient 487, FIG. 4
Description: Phenotypic drug susceptibility and resistance profile: patient 487. […] This is an example of the first pattern of NNRTI susceptibility/resistance.
as §1, §2

[6] = system: RTV-757, patient 98-757 (RT V106A, V108I, V189L); experiment: Phenotypic susceptibility assay (patient RTV); format: cell-based, HIV-1; conditions: patient RTV pool
Description: The resistance test vectors containing a functional luciferase gene cassette were constructed and host cells were transfected with the resistance test vector DNA. The resistant test vectors contained patient-derived reverse transcriptase and protease sequences that were either susceptible or resistant to the antiretroviral agents, such as nucleoside reverse transcriptase inhibitors, non-nucleoside reverse transcriptase inhibitors and protease inhibitors. The resistance test vector viral particles produced by transfecting the resistance test vector DNA into host cells, either in the presence or absence of protease inhibitors, were used to infect target host cells grown either in the absence of NRTI or NNRTI or in the presence of increasing concentrations of the drug. The amount of luciferase activity produced in infected target host cells in the presence of drug was compared to the amount of luciferase produced in infected target host cells in the absence of drug. Drug resistance was measured as the amount of drug required to inhibit by 50% the luciferase activity detected in the absence of drug (inhibitory concentration 50%, IC50). The IC50 values were determined by plotting percent drug inhibition vs. log10 drug concentration.
Host cells were seeded in 10-cm-diameter dishes and were transfected several days after plating with resistance test vector plasmid DNA and the envelope expression vector. Transfections were performed using a calcium-phosphate precipitation procedure. The cell culture media containing the DNA precipitate was replaced with fresh medium, from one to 24 hours, after transfection. Cell culture media containing resistance test vector viral particles was harvested one to four days after transfection and was passed through a […] filter before being stored at […]. HIV capsid protein (p24) levels in the harvested cell culture media were determined by an EIA method as described by the manufacturer (SIAC; Frederick, Md.). Before infection, target cells (293 and 293/T) were plated in cell culture media. Control infections were performed using cell culture media from mock transfections (no DNA) or transfections containing the resistance test vector plasmid DNA without the envelope expression plasmid. One to three or more days after infection the media was removed and cell lysis buffer (Promega) was added to each well. Cell lysates were assayed for luciferase activity (FIG. 3). The inhibitory effect of the drug was determined using the following equation: % luciferase inhibition=1−(RLUluc [drug]÷RLUluc)×100 where RLUluc [drug] is the relative light unit of luciferase activity in infected cells in the presence of drug and RLUluc is the Relative Light Unit of luciferase activity in infected cells in the absence of drug. IC50 values were obtained from the sigmoidal curves that were generated from the data by plotting the percent inhibition of luciferase activity vs. the log10 drug concentration. The drug inhibition curves are shown in (FIG. 3).
A resistance test vector was constructed as described in Example 1 from a patient sample designated 98-1033. […]

SMILES | decrease in susceptibility (fold, IC50) [1] [fold] | change in susceptibility [2] | change in susceptibility [3] | effect of P225H on resistance associated with K103N [4] | change in susceptibility [5] | decrease in susceptibility (fold, IC50) [6]
CC(C)Nc1cccnc1N1CCN(C(=O)c2cc3cc(NS(C)(=O)=O)ccc3[nH]2)CC1 [delavirdine] | 35 | reduced susceptibility | further increase in resistance | reduces the amount delavirdine resistance | increased resistance | 10 fold
Cc1ccnc2c1NC(=O)c1cccnc1N2C1CC1 [nevirapine] | 610 | reduced susceptibility | further increase in resistance | does not alter | increased resistance | greater than 800 fold
